Eight compounds from patent US20230398130A1, “METHODS AND COMPOSITIONS FOR DIFFERENTIATING STEM CELLS” (Massachusetts Institute of Technology, priority 2020, published 2023) can be followed below.

Assay [1] has as its system ISC-enriched organoids. As to the kind of experiment: Primary screen, 384-well 2.5-D organoid differentiation (ENR+CD, 6 days, Target Selective Inhibitor Library, vs whole-plate median): ATP (CellTiter-Glo 3D, CTG). Particulars: primary screen; for Dose.FC.CTG: ENR+CD 6 days, FC vs plate median; for Z.CTG: standard z score of FC. On the technique in general: Cellular ATP, detected with luciferase, serves as a proxy for viable cell number.

The subject of assay [2] is ISC-enriched organoids. The assay can be described thus: Primary screen, 384-well 2.5-D organoid differentiation (ENR+CD, 6 days): carbachol-induced lysozyme secretion (LYZ.S). It counts as cell-based, murine. Particulars: primary screen, ENR+CD 6 days, FC vs plate median. The text has this: (§1) High-throughput screening.
Assay [3] relates to ISC-enriched organoids. As to the kind of experiment: Primary screen, 384-well 2.5-D organoid differentiation (ENR+CD, 6 days): basal lysozyme secretion (LYZ.NS). It is filed as cell-based, murine. Particulars: primary screen; for Dose.FC.LYZ.NS: ENR+CD 6 days, FC vs plate median; for Z.LYZ.NS: standard z score of FC.
From the text: as §1

The structures appear in SMILES notation.

Take `COc1cc(OC2CCN(C)CC2)ccc1Nc1ncc2c(n1)n(C1CCCC1)c(=O)n2C` [AZ 3146]: the Dose.FC.CTG in assay [1] (dose 0.08 uM) is reported as −0.130 log 2 fold change; in assay [1] (dose 0.40 uM), −0.262 log 2 fold change; in assay [1] (dose 2.00 uM) it was −0.369 log 2 fold change; in assay [1] (dose 10.00 uM), −1.168 log 2 fold change. Besides, the Z.CTG in assay [1] (dose 0.08 uM) is listed as −0.310; in assay [1] (dose 0.40 uM), −0.626; in assay [1] (dose 2.00 uM) it was −0.881; in assay [1] (dose 10.00 uM), −2.789. The Dose.FC.LYZ.S is 0.049 log 2 fold change in assay [2] (dose 0.08 uM), −0.067 log 2 fold change in assay [2] (dose 0.40 uM), −0.130 log 2 fold change in assay [2] (dose 2.00 uM) and −0.422 log 2 fold change in assay [2] (dose 10.00 uM). For the same compound, the Dose.FC.LYZ.NS is on record as 0.073 log 2 fold change in assay [3] (dose 0.08 uM), −0.038 log 2 fold change in assay [3] (dose 0.40 uM), −0.079 log 2 fold change in assay [3] (dose 2.00 uM) and −0.281 log 2 fold change in assay [3] (dose 10.00 uM). Besides, the Z.LYZ.NS is 0.639 in assay [3] (dose 0.08 uM), −0.327 in assay [3] (dose 0.40 uM), −0.687 in assay [3] (dose 2.00 uM) and −2.447 in assay [3] (dose 10.00 uM).

As for `CC(=O)Nc1cccc2c1c(Sc1ccc(Cl)cc1)c(C)n2CC(=O)O` [AZD1981], the Dose.FC.CTG in assay [1] (dose 0.08 uM) is 0.400 log 2 fold change; in assay [1] (dose 0.40 uM), 0.285 log 2 fold change; in assay [1] (dose 2.00 uM), 0.099 log 2 fold change; in assay [1] (dose 10.00 uM), 0.238 log 2 fold change. The Z.CTG in assay [1] (dose 0.08 uM) is reported as 0.955; in assay [1] (dose 0.40 uM), 0.681; in assay [1] (dose 2.00 uM), 0.236; in assay [1] (dose 10.00 uM), 0.570. Further, the Dose.FC.LYZ.S in assay [2] (dose 0.08 uM) was 0.023 log 2 fold change; in assay [2] (dose 0.40 uM), 0.191 log 2 fold change; in assay [2] (dose 2.00 uM), 0.014 log 2 fold change; in assay [2] (dose 10.00 uM) it was 0.070 log 2 fold change. Besides, the Dose.FC.LYZ.NS in assay [3] (dose 0.08 uM) is recorded as 0.009 log 2 fold change; in assay [3] (dose 0.40 uM), 0.001 log 2 fold change; in assay [3] (dose 2.00 uM), 0.001 log 2 fold change; in assay [3] (dose 10.00 uM), 0.024 log 2 fold change. Also, the Z.LYZ.NS was 0.081 in assay [3] (dose 0.08 uM), 0.008 in assay [3] (dose 0.40 uM), 0.011 in assay [3] (dose 2.00 uM) and 0.205 in assay [3] (dose 10.00 uM).

In the case of `COC1CCN(C(=O)c2cc(Cc3n[nH]c(=O)c4ccccc34)ccc2F)CC1` [AZD2461], the Dose.FC.CTG is on record as 0.073 log 2 fold change in assay [1] (dose 0.08 uM), −0.040 log 2 fold change in assay [1] (dose 0.40 uM), −0.232 log 2 fold change in assay [1] (dose 2.00 uM) and −0.336 log 2 fold change in assay [1] (dose 10.00 uM). The Z.CTG in assay [1] (dose 0.08 uM) is on record as 0.174; in assay [1] (dose 0.40 uM), −0.095; in assay [1] (dose 2.00 uM) it was −0.555; in assay [1] (dose 10.00 uM), −0.803. Besides, the Dose.FC.LYZ.S is on record as 0.097 log 2 fold change in assay [2] (dose 0.08 uM), 0.015 log 2 fold change in assay [2] (dose 0.40 uM), −0.100 log 2 fold change in assay [2] (dose 2.00 uM) and −0.224 log 2 fold change in assay [2] (dose 10.00 uM). For the same compound, the Dose.FC.LYZ.NS in assay [3] (dose 0.08 uM) was 0.038 log 2 fold change; in assay [3] (dose 0.40 uM) it was −0.038 log 2 fold change; in assay [3] (dose 2.00 uM), −0.074 log 2 fold change; in assay [3] (dose 10.00 uM) it was −0.172 log 2 fold change. Besides, the Z.LYZ.NS in assay [3] (dose 0.08 uM) was 0.334; in assay [3] (dose 0.40 uM), −0.327; in assay [3] (dose 2.00 uM) it was −0.641; in assay [3] (dose 10.00 uM), −1.497.

Take `COc1cc(N2CCC(N)CC2)ccc1Nc1ncc(Cl)c(-c2c[nH]c3ccccc23)n1` [AZD3463]: the Dose.FC.CTG in assay [1] (dose 0.08 uM) was −0.275 log 2 fold change; in assay [1] (dose 0.40 uM), −0.341 log 2 fold change; in assay [1] (dose 2.00 uM), −0.772 log 2 fold change; in assay [1] (dose 10.00 uM) it was −0.960 log 2 fold change. Further, the Z.CTG is given as −0.657 in assay [1] (dose 0.08 uM), −0.814 in assay [1] (dose 0.40 uM), −1.843 in assay [1] (dose 2.00 uM) and −2.293 in assay [1] (dose 10.00 uM). Moreover, the Dose.FC.LYZ.S was −0.199 log 2 fold change in assay [2] (dose 0.08 uM), −0.293 log 2 fold change in assay [2] (dose 0.40 uM), −0.315 log 2 fold change in assay [2] (dose 2.00 uM) and −0.328 log 2 fold change in assay [2] (dose 10.00 uM). Further, the Dose.FC.LYZ.NS was −0.147 log 2 fold change in assay [3] (dose 0.08 uM), −0.190 log 2 fold change in assay [3] (dose 0.40 uM), −0.232 log 2 fold change in assay [3] (dose 2.00 uM) and −0.209 log 2 fold change in assay [3] (dose 10.00 uM). Besides, the Z.LYZ.NS in assay [3] (dose 0.08 uM) is −1.279; in assay [3] (dose 0.40 uM), −1.652; in assay [3] (dose 2.00 uM), −2.021; in assay [3] (dose 10.00 uM), −1.820.

`Cc1cc([C@@H](C)Nc2ccccc2C(=O)O)c2nc(N3CCOCC3)cc(=O)n2c1` [AZD6482]: the Dose.FC.CTG in assay [1] (dose 0.08 uM) is 0.240 log 2 fold change; in assay [1] (dose 0.40 uM) it was 0.223 log 2 fold change; in assay [1] (dose 2.00 uM), −0.509 log 2 fold change; in assay [1] (dose 10.00 uM), −1.203 log 2 fold change. For the same compound, the Z.CTG is 0.572 in assay [1] (dose 0.08 uM), 0.533 in assay [1] (dose 0.40 uM), −1.215 in assay [1] (dose 2.00 uM) and −2.874 in assay [1] (dose 10.00 uM). The Dose.FC.LYZ.S is given as 0.182 log 2 fold change in assay [2] (dose 0.08 uM), 0.156 log 2 fold change in assay [2] (dose 0.40 uM), −0.114 log 2 fold change in assay [2] (dose 2.00 uM) and −0.253 log 2 fold change in assay [2] (dose 10.00 uM). Also, the Dose.FC.LYZ.NS in assay [3] (dose 0.08 uM) is 0.108 log 2 fold change; in assay [3] (dose 0.40 uM) it was 0.076 log 2 fold change; in assay [3] (dose 2.00 uM), −0.130 log 2 fold change; in assay [3] (dose 10.00 uM) it was −0.248 log 2 fold change. In addition, the Z.LYZ.NS was 0.944 in assay [3] (dose 0.08 uM), 0.660 in assay [3] (dose 0.40 uM), −1.129 in assay [3] (dose 2.00 uM) and −2.160 in assay [3] (dose 10.00 uM).

`CN(C)C(=O)c1ccc(S(=O)(=O)c2ccc(NC(=O)[C@@](C)(O)C(F)(F)F)c(Cl)c2)cc1` [AZD7545]: the Dose.FC.CTG in assay [1] (dose 0.08 uM) is reported as −0.334 log 2 fold change; in assay [1] (dose 0.40 uM) it was −0.158 log 2 fold change; in assay [1] (dose 2.00 uM), −0.255 log 2 fold change; in assay [1] (dose 10.00 uM) it was −0.350 log 2 fold change. Also, the Z.CTG in assay [1] (dose 0.08 uM) is given as −0.798; in assay [1] (dose 0.40 uM), −0.378; in assay [1] (dose 2.00 uM) it was −0.608; in assay [1] (dose 10.00 uM) it was −0.836. Also, the Dose.FC.LYZ.S was 0.111 log 2 fold change in assay [2] (dose 0.08 uM), −0.017 log 2 fold change in assay [2] (dose 0.40 uM), −0.148 log 2 fold change in assay [2] (dose 2.00 uM) and −0.104 log 2 fold change in assay [2] (dose 10.00 uM). For the same compound, the Dose.FC.LYZ.NS is reported as 0.087 log 2 fold change in assay [3] (dose 0.08 uM), −0.028 log 2 fold change in assay [3] (dose 0.40 uM), −0.018 log 2 fold change in assay [3] (dose 2.00 uM) and −0.051 log 2 fold change in assay [3] (dose 10.00 uM). The Z.LYZ.NS was 0.758 in assay [3] (dose 0.08 uM), −0.245 in assay [3] (dose 0.40 uM), −0.155 in assay [3] (dose 2.00 uM) and −0.441 in assay [3] (dose 10.00 uM).

For the compound `NC(=O)Nc1cc(-c2cccc(F)c2)sc1C(=O)N[C@H]1CCCNC1` [AZD7762], the Dose.FC.CTG in assay [1] (dose 0.08 uM) is given as 0.054 log 2 fold change; in assay [1] (dose 0.40 uM), −0.384 log 2 fold change; in assay [1] (dose 2.00 uM) it was −0.804 log 2 fold change; in assay [1] (dose 10.00 uM), −1.361 log 2 fold change. Also, the Z.CTG in assay [1] (dose 0.08 uM) is reported as 0.129; in assay [1] (dose 0.40 uM), −0.917; in assay [1] (dose 2.00 uM), −1.920; in assay [1] (dose 10.00 uM), −3.251. The Dose.FC.LYZ.S in assay [2] (dose 0.08 uM) is on record as 0.019 log 2 fold change; in assay [2] (dose 0.40 uM), −0.251 log 2 fold change; in assay [2] (dose 2.00 uM), −0.342 log 2 fold change; in assay [2] (dose 10.00 uM) it was −0.369 log 2 fold change. Also, the Dose.FC.LYZ.NS in assay [3] (dose 0.08 uM) is on record as 0.010 log 2 fold change; in assay [3] (dose 0.40 uM) it was −0.159 log 2 fold change; in assay [3] (dose 2.00 uM) it was −0.211 log 2 fold change; in assay [3] (dose 10.00 uM), −0.220 log 2 fold change. In addition, the Z.LYZ.NS in assay [3] (dose 0.08 uM) was 0.084; in assay [3] (dose 0.40 uM) it was −1.385; in assay [3] (dose 2.00 uM), −1.835; in assay [3] (dose 10.00 uM), −1.917.

Turning to `COc1cc(F)c(C(C)C)cc1-c1ccc(C(F)(F)F)cc1CN1C(=O)O[C@H](c2cc(C(F)(F)F)cc(C(F)(F)F)c2)[C@@H]1C` [Anacetrapib (MK-0859)], the Dose.FC.CTG in assay [1] (dose 0.08 uM) was −0.090 log 2 fold change; in assay [1] (dose 0.40 uM), 0.035 log 2 fold change; in assay [1] (dose 2.00 uM) it was −0.094 log 2 fold change; in assay [1] (dose 10.00 uM), 0.031 log 2 fold change. Besides, the Z.CTG in assay [1] (dose 0.08 uM) is recorded as −0.214; in assay [1] (dose 0.40 uM), 0.084; in assay [1] (dose 2.00 uM), −0.225; in assay [1] (dose 10.00 uM) it was 0.075. Further, the Dose.FC.LYZ.S in assay [2] (dose 0.08 uM) is reported as 0.051 log 2 fold change; in assay [2] (dose 0.40 uM), −0.002 log 2 fold change; in assay [2] (dose 2.00 uM), −0.046 log 2 fold change; in assay [2] (dose 10.00 uM) it was −0.036 log 2 fold change. Besides, the Dose.FC.LYZ.NS is given as 0.013 log 2 fold change in assay [3] (dose 0.08 uM), 0.007 log 2 fold change in assay [3] (dose 0.40 uM), −0.015 log 2 fold change in assay [3] (dose 2.00 uM) and −0.036 log 2 fold change in assay [3] (dose 10.00 uM). For the same compound, the Z.LYZ.NS is 0.112 in assay [3] (dose 0.08 uM), 0.060 in assay [3] (dose 0.40 uM), −0.129 in assay [3] (dose 2.00 uM) and −0.314 in assay [3] (dose 10.00 uM).
